Here are results for 25 molecules from patent US12187720B2, “Compounds for treatment of cancer” (ONCTERNAL THERAPEUTICS, INC., priority 2010, dated 2025).

A short description of data set [1]: Aqueous solubility, Multiscreen Solubility Filter Plate with LC-MS/MS (PBS pH 7.4). The format is physicochemical. The note with it: for aqueous solubility: PBS pH 7.4.
Another data set deals with DU 145. Nature of the data set: SRB cytotoxicity assay, DU 145 prostate cancer cells. The format is cell-based. As to conditions: Homo sapiens. An excerpt: (§1) Cells were stained with SRB solution.
A general note: The SRB assay estimates cell density from bound dye.

The next data set concerns PC-3. Nature of the data set: SRB cytotoxicity assay, PC-3 prostate cancer cells. The format is cell-based, human. The note with it: Homo sapiens, PC-3.
Text: as §1

For another data set, the system named is LNCaP. Nature of the data set: SRB cytotoxicity assay, LNCaP prostate cancer cells. The note with it: Homo sapiens, LNCaP. It is filed as cell-based, human.
Text: as §1

In another data set the test system is DU145/TXR. Nature of the data set: SRB growth inhibition, paclitaxel-resistant DU145/TXR cells. The format is cell-based. As to conditions: Homo sapiens, DU-145; Table 13A; read-out: inhibitory effects DU145/TXR.
A short description of data set [2]: Pharmacokinetic study in Sprague-Dawley rats. As to conditions: for CL (systemic clearance) / Vss (volume of distribution following intravenous dosing): IV, […] (1h, 2r), 5 mg/kg (5Ha, 5Hc); for F (percent oral bioavailability), rat: rats, PO versus IV.
For the next data set, the system named is WM-164. Nature of the data set: SRB cytotoxicity assay, WM-164 human melanoma cells. It is filed as cell-based. The note with it: Homo sapiens.
In data set [3] the test system is melanoma and prostate cancer cell lines. Nature of the data set: SRB cytotoxicity, summary or average over melanoma and prostate cancer cell lines. The format is cell-based. As to conditions: for IC50: average of all seven cell lines.
The nature of data set [4]: Metabolic stability in human liver microsomes. As to conditions: for half-life at 0.5 μM: human, liver microsomes, pH 7.4.
Another data set relates to A375. Nature of the data set: SRB cytotoxicity assay, A375 human melanoma cells. The format is cell-based. As to conditions: read-out: IC50 ± SEM A375.
A further data set deals with MDA-MB-435/LCCMDR1. Nature of the data set: SRB cytotoxicity assay, multidrug-resistant MDA-MB-435/LCCMDR1 melanoma cells. The format is cell-based, human.
The subject of a further data set is PPC-1. Nature of the data set: SRB cytotoxicity assay, PPC-1 prostate cancer cells. The format is cell-based, human. The note with it: Homo sapiens, PPC-1.
Text: as §1

Data set [5] is described as follows: Metabolic stability in mouse liver microsomes. The format is in vitro ADME. The note with it: mouse, liver microsomes, pH 7.4, Table 20; read-out: Half life in Mouse liver microsome. Background: Microsomes from liver hold many membrane-bound enzymes, among them those of drug oxidation.
A short description of data set [6]: Metabolic stability in rat liver microsomes. The format is in vitro ADME. As to conditions: rat, liver microsomes, pH 7.4; Table 20; read-out: Half life in Rat liver microsome.
A short description of data set [7]: Metabolic stability in dog liver microsomes. It is filed as in vitro ADME. As to conditions: dog, dog liver microsomes, pH 7.4; Table 20; read-out: Half life in Dog liver microsome.
Data set [8] in a line: in vivo. As to conditions: female, Sprague-Dawley, rat, plasma.
A short description of data set [9]: in vivo. As to conditions: male, ICR, mouse, plasma, po, 20 mg/kg.
Where [10] appears, read: Table 13A, read-out: inhibitory effects DU145.
[11] abbreviates: Table 13A, read-out: inhibitory effects PC3.
[12] abbreviates: Table 13A, read-out: inhibitory effects LNCaP.
The mark [13] stands for this setting: Table 13B, read-out: inhibitory effects DU145.
Setting [14] is: Table 13B, read-out: inhibitory effects PC3.
The mark [15] stands for this setting: Table 13B, read-out: inhibitory effects LNCaP.
[16] abbreviates: Table 13B, read-out: inhibitory effects PPC1.
Setting [17] is: Table 13A, read-out: inhibitory effects PPC1.

≈ marks a conversion by molar mass, not a printed value. Counter-ions that a name gives are not always drawn. Like-named read-outs stand apart in the source and are kept apart here.

Turning to `COc1cc(C(=O)c2csc(-c3ccc(CN)cc3)n2)cc(OC)c1OC` [2r, (2-(4-(Aminomethyl)phenyl)thiazol-4-yl)(3,4,5-trimethoxyphenyl)methanone hydrochloride], the “increase of solubility (fold)” value in data set [1] (HCl salt versus 1h) is listed as “over 35 fold”.

For `COc1cc(C(=O)c2nc(-c3ccc(Br)cc3)c[nH]2)cc(OC)c1OC` [70d, (4-(4-bromophenyl)-1H-imidazol-2-yl)(3,4,5-trimethoxyphenyl)methanone], the IC50 in the data set on DU 145 (setting [10]) was 66 nM; in the data set on PC-3 (setting [11]) it was 33 nM; in the data set on LNCaP (setting [12]), 15 nM; in the data set on DU145/TXR it was 63 nM.

For the molecule `COc1cc(C(=O)c2csc(Nc3ccccc3)n2)cc(OC)c1OC.Cl` [5Ha, (2-(phenylamino)thiazol-4-yl)(3,4,5-trimethoxyphenyl)methanone hydrochloride salt], in data set [2], the “CL (systemic clearance)” value is listed as 17 ± 3 mL/min/kg; the “Vss (volume of distribution following intravenous dosing)” value is given as 1.4 ± 0.2 L/kg; the “F (percent oral bioavailability), rat” value came out at 11%.

In the case of `COc1ccc(-c2nc(C(=O)c3ccc(F)cc3)cn2S(=O)(=O)c2ccccc2)cc1` [11cb, (4-fluorophenyl)(2-(4-methoxyphenyl)-1-(phenylsulfonyl)-1H-imidazol-4-yl)methanone], the IC50 in the data set on WM-164 (WM164, 48 h, Table 13, 48 h, read-out: IC50 ± SEM WM164 (converted)) is 43 nM; in data set [3], 43 nM.

The aqueous solubility is how much of the substance goes into solution per volume. Higher therefore signals a readily soluble substance. In data set [1], `COc1cc(C(=O)c2csc(-c3ccc4[nH]ccc4c3)n2)cc(OC)c1OC` [66a] returned an aqueous solubility of 3.8 µg/mL (≈ 9.63 µM).

Consider `COc1cc(/C(=N/O)c2csc(-c3ccccc3)n2)cc(OC)c1OC` [2e-cis, (Z)-(2-Phenylthiazol-4-yl)(3,4,5-trimethoxyphenyl)methanone oxime], for which the “fold more activity than the comparator” value in [3] (2e-cis vs 2e-trans, 12jb vs 12kb) turned out to be 10 fold. Also, the “half life in human liver microsome” value in data set [4] is 35 min.

In the case of `CN(C)c1ccc(-c2nc(C(=O)c3ccc(F)cc3)c[nH]2)cc1` [12gb, (2-(4-(dimethylamino)phenyl)-1H-imidazol-4-yl)(4-fluorophenyl)methanone], the IC50 was 56 ± 7 nM in the data set on A375 (Homo sapiens, A-375, 48 h, Table 12, 48 h) and 62 ± 8 nM in the data set on WM-164 (WM164, 48 h, Table 12, 48 h, read-out: IC50 ± SEM WM164 (converted)).

Turning to `O=C(c1ccc(F)cc1)c1cn(S(=O)(=O)c2ccccc2)c(-c2ccc(Cl)cc2)n1` [11fb, (2-(4-chlorophenyl)-1-(phenylsulfonyl)-1H-imidazol-4-yl)(4-fluorophenyl)methanone], the IC50 was determined as 35 ± 3 nM with MDA-MB-435/LCCMDR1 (Homo sapiens, Table 14A, multidrug-resistant cell line, n = 3, read-out: IC50 ± SEM MDA-MB-435/LCC6MDR1) and 72 nM in [3]. Besides, the resistance index with MDA-MB-435/LCCMDR1 (IC50 on MDA-MB-435/LCC6MDR1 divided by IC50 on MDA-MB-435) and with MDA-MB-435/LCCMDR1 (MDA-MB-435/LCCMDR1 versus MDA-MB-435) was 0.7 in each case.

For the molecule `O=C(c1ccc(F)cc1)c1c[nH]c(-c2ccc(O)cc2)n1` [12kb], the IC50 in the data set with A375 (Table 12, 48 h) came to 10000 nM.

As for `COc1cc(C(=O)c2csc(-c3ccccc3)n2)cc(OC)c1O` [compound 34], the IC50 is above 10000 nM in the data set on WM-164 (WM164, Table 6A, read-out: IC50 WM164) and above 10000 nM in the data set with LNCaP (Table 6A, read-out: IC50 LNCaP).

For “5-Phenyl-2-(3,4,5-trimethoxybenzyl)-1H-imidazole and 4-phenyl-2-(3,4,5-trimethoxybenzyl)-1H-imidazole [102a]”, the IC50 in the data set on A375 (Table 14C) worked out at 10200 ± 392 nM.

On to `O=C(c1ccc(F)cc1)c1nc(-c2ccc(F)cc2)c[nH]1` [70r, (4-fluorophenyl)(4-(4-fluorophenyl)-1H-imidazol-2-yl)methanone], for which the IC50 in the data set with DU 145 (setting [13]), with PC-3 (setting [14]), in the data set with LNCaP (setting [15]) and in the data set on PPC-1 (setting [16]) was above 50000 nM each time.

`COc1cc(C(=O)c2nc(-c3ccc(C)cc3)c[nH]2)cc(OC)c1OC` [70f, (4-p-tolyl-1H-imidazol-2-yl)(3,4,5-trimethoxyphenyl)methanone]: the values for the IC50 with LNCaP (setting [12]) and with DU145/TXR were 13 nM and 21 nM, respectively.

For the molecule `COc1cc(C(=O)c2csc(Nc3ccccc3)n2)cc(OC)c1OC` [5a, (2-(phenylamino)thiazol-4-yl)(3,4,5-trimethoxyphenyl)methanone], in [1], the aqueous solubility was 15 µg/mL (≈ 40.5 µM).

`COc1cc(C(=O)c2nc(-c3ccc(O)cc3)c[nH]2)cc(OC)c1OC` [70i, (4-(4-hydroxyphenyl)-1H-imidazol-2-yl)(3,4,5-trimethoxyphenyl)methanone]: the IC50 in the data set with DU 145 (setting [10]) amounted to 518 nM; with PC-3 (setting [11]), 155 nM; in the data set with LNCaP (setting [12]) it was 219 nM; in the data set on PPC-1 (setting [17]), 122 nM.

For the molecule `CCc1[nH]c(C(=O)c2cc(OC)c(OC)c(OC)c2)nc1-c1ccccc1` [70k, (5-ethyl-4-phenyl-1H-imidazol-2-yl)(3,4,5-trimethoxyphenyl)methanone], the IC50 in the data set with DU 145 (setting [10]) came to 5080 nM; in the data set with PC-3 (setting [11]) it was 3650 nM; in the data set on LNCaP (setting [12]), 2030 nM; with PPC-1 (setting [17]), 2080 nM.

In the case of `COc1ccc(C(=O)n2ccnc2-c2ccc(F)cc2)cc1` [compound 24], the IC50 in the data set on DU 145 (Table 6A, read-out: IC50 DU 145) is above 10000 nM; in the data set with PC-3 (Table 6A, read-out: IC50 PC-3) it was above 10000 nM; with LNCaP (Table 6A, read-out: IC50 LNCaP), above 10000 nM; in the data set on PPC-1 (Table 6A, read-out: IC50 PPC-1), above 10000 nM.

In the case of `COc1cc(C(=O)c2csc(Nc3ccc(F)cc3)n2)cc(OC)c1OC.Cl` [5Hc, (2-(p-fluorophenylamino)thiazol-4-yl)(3,4,5-trimethoxyphenyl)methanone hydrochloride salt], the IC50 in the data set with DU 145 (Table 6, read-out: IC50 ± SEM DU 145) was found to be 70 nM; with PC-3 (Table 6, read-out: IC50 ± SEM PC-3), 53 nM; in the data set with LNCaP (Table 6, read-out: IC50 ± SEM LNCaP), 53 nM; in the data set with PPC-1 (Table 6, read-out: IC50 ± SEM PPC-1) it was 43 nM. In [2], the “CL (systemic clearance)” value is reported as 13 ± 2 mL/min/kg. Besides, the “Vss (volume of distribution following intravenous dosing)” value in data set [2] is given as 1.4 ± 0.2 L/kg. For the same molecule, in data set [2], the “F (percent oral bioavailability), rat” value is 21%.

Broadly, the half-life is the time needed for the level to fall by half in the phase considered. `COc1cc(-c2csc(-c3ccccc3)n2)cc(OC)c1OC` [2i, 2-Phenyl-4-(3,4,5-trimethoxyphenyl)thiazole] displayed a half-life at 0.5 μM in data set [4] of 32 min.

Usually bioavailability stands for the share of a dose that reaches the circulation, judged against a reference dose that is usually intravenous. In [3], `COc1cc(C(=O)c2c[nH]c(-c3ccc(Cl)cc3)n2)cc(OC)c1OC` [12fa, (2-(4-chlorophenyl)-1H-imidazol-4-yl)(3,4,5-trimethoxyphenyl)methanone] yielded an IC50 of 43 nM. For the same molecule, the half-life at 0.5 μM in data set [5] worked out at 23 min; in [6], 46 min; in data set [7], 26 min; in [4], 56 min. Also, the bioavailability turned out to be 35% in the data set “in vivo [8]” (oral); 35% in “in vivo [8]” (po, 10 mg/kg); 62% in the data set “in vivo [9]”.

As for `Cc1ccc(C(=O)c2nc(-c3ccc(C)cc3)c[nH]2)cc1` [70v, p-tolyl(4-p-tolyl-1H-imidazol-2-yl)methanone], the IC50 with DU 145 (setting [13]) was determined as 6540 nM; with PC-3 (setting [14]), 5160 nM; in the data set with LNCaP (setting [15]), 3760 nM; with PPC-1 (setting [16]), 2400 nM.

`COc1cc(Cc2nc(-c3ccccc3)c(C)[nH]2)cc(OC)c1OC` [102b, 5-methyl-4-phenyl-2-(3,4,5-trimethoxybenzyl)-1H-imidazole]: the IC50 in the data set with A375 (Homo sapiens, A-375, Table 14C) was above 50000 nM.

Take `CCCc1[nH]c(C(=O)c2cc(OC)c(OC)c(OC)c2)nc1-c1ccccc1` [70l, (4-phenyl-5-propyl-1H-imidazol-2-yl)(3,4,5-trimethoxyphenyl)methanone]: the IC50 turned out to be 16400 nM in the data set with DU 145 (setting [10]), 12400 nM in the data set on PC-3 (setting [11]), 3090 nM in the data set with LNCaP (setting [12]) and 11400 nM with PPC-1 (setting [17]).

Turning to `COc1cc(C(=O)c2csc(Nc3ccc(F)cc3)n2)cc(OC)c1OC` [5c, (2-(p-fluorophenylamino)thiazol-4-yl)(3,4,5-trimethoxyphenyl)methanone], the aqueous solubility in [1] came to 19 µg/mL (≈ 48.9 µM).

Regarding `COc1cc(C(=O)c2nc(-c3ccccc3)c(C)[nH]2)cc(OC)c1OC` [70j, (5-methyl-4-phenyl-1H-imidazol-2-yl)(3,4,5-trimethoxyphenyl)methanone], the IC50 in the data set with DU 145 (setting [10]) turned out to be 2000 nM; in the data set on PC-3 (setting [11]) it was 1620 nM; in the data set on LNCaP (setting [12]), 938 nM; with PPC-1 (setting [17]), 860 nM.
